From patent US7902201B2, “Isoxazolo-pyrazine derivatives” (Hoffmann-La Roche Inc., priority 2007, dated 2011) come the findings set out here.

The assay concerns the target T1, GABA A receptors containing the α5 subunit (α5β3γ2) (Homo sapiens, UniProt P18507+P31644).
T1 construct: expressed in transfected cells; host or cells: HEK293 (transiently transfected); membranes prepared from cell pellets
As to the kind of experiment: [3H]flumazenil competition binding assay, human GABA A receptor (hKi). The note with it: human receptor transiently transfected in HEK293 cells, means of two determinations. As to the method:
The affinity of compounds at GABA A receptor subtypes was measured by competition for [3H]flumazenil (85 Ci/mmol; Roche) binding to HEK293 cells expressing rat (stably transfected) or human (transiently transfected) receptors of composition α1β3γ2, α2β3γ2, α3β3γ2 and α5β3γ2.
Cell pellets were suspended in Krebs-tris buffer (4.8 mM KCl, 1.2 mM CaCl2, 1.2 mM MgCl2, 120 mM NaCl, 15 mM Tris; pH 7.5; binding assay buffer), homogenized by polytron for ca. 20 sec on ice and centrifuged for 60 min at 4° C. (50000 g; Sorvall, rotor: SM24=20000 rpm). The cell pellets were resuspended in Krebs-tris buffer and homogenized by polytron for ca. 15 sec on ice. Protein was measured (Bradford method, Bio-Rad) and aliquots of 1 mL were prepared and stored at −80° C.
Radioligand binding assays were carried out in a volume of 200 μL (96-well plates) which contained 100 μL of cell membranes, [3H]flumazenil at a concentration of 1 nM for α1, α2, α3 subunits and 0.5 nM for α5 subunits and the test compound in the range of […]. Nonspecific binding was defined by 10^−5 M diazepam and typically represented less than 5% of the total binding. Assays were incubated to equilibrium for 1 hour at. 4° C. and harvested onto GF/C uni-filters (Packard) by filtration using a Packard harvester and washing with ice-cold wash buffer (50 mM Tris; pH 7.5). After drying, filter-retained radioactivity was detected by liquid scintillation counting. Ki values were calculated using Excel-Fit (Microsoft) and are the means of two determinations.

Broadly, the Ki is the dissociation constant of the complex between target and ligand, obtained from inhibition or displacement. “5-[(5-Methyl-3-phenyl-isoxazol-4-ylmethyl)-amino]-pyrazine-2-carboxylic acid (tetrahydro-pyran-4-yl)-amide [Example 11]” displayed an inhibition constant Ki of 12.1 nM. This counts as double-digit nanomolar.

In the case of “5-[(5-Methyl-3-phenyl-isoxazol-4-ylmethyl)-amino]-pyrazine-2-carboxylic acid cyclopropylamide [Example 10]”, the affinity corresponds to a Ki of 10.4 nM.

In turn, `COC(=O)c1cnc(OCc2c(-c3ccccc3)noc2C)cn1` [Example 1, 5-(5-Methyl-3-phenyl-isoxazol-4-ylmethoxy)-pyrazine-2-carboxylic acid methyl ester] came in with a Ki of 29 nM.

`Cc1onc(-c2ccccc2)c1COc1cnc(C(=O)NCC2CC2)cn1` [Example 2, 5-(5-Methyl-3-phenyl-isoxazol-4-ylmethoxy)-pyrazine-2-carboxylic acid cyclopropylmethyl-amide]: the affinity, expressed as Ki, was 3.1 nM.

On to `Cc1onc(-c2ccccc2)c1COc1cnc(C(=O)NC(C)C)cn1` [Example 3, 5-(5-Methyl-3-phenyl-isoxazol-4-ylmethoxy)-pyrazine-2-carboxylic acid isopropylamide], for which the affinity, expressed as Ki, was 1.2 nM.

As to `Cc1onc(-c2ccccc2)c1COc1cnc(C(=O)NC(C)(C)C)cn1` [Example 4, 5-(5-Methyl-3-phenyl-isoxazol-4-ylmethoxy)-pyrazine-2-carboxylic acid tert-butylamide], the inhibition constant (Ki) came out at 10.8 nM.

Regarding `Cc1onc(-c2ccccc2)c1COc1cnc(C(=O)NC2CC2)cn1` [Example 5, 5-(5-Methyl-3-phenyl-isoxazol-4-ylmethoxy)-pyrazine-2-carboxylic acid cyclopropylamide], the Ki was 1.9 nM.

Compound `Cc1onc(-c2ccccc2)c1COc1cnc(C(=O)NC2CCOCC2)cn1` [Example 6, 5-(5-Methyl-3-phenyl-isoxazol-4-ylmethoxy)-pyrazine-2-carboxylic acid (tetrahydro-pyran-4-yl)-amide] had a Ki of 1.2 nM.

Compound `Cc1onc(-c2ccccc2)c1COc1cnc(C(=O)NC2CCC(F)(F)CC2)cn1` [Example 7, 5-(5-Methyl-3-phenyl-isoxazol-4-ylmethoxy)-pyrazine-2-carboxylic acid (4,4-difluoro-cyclohexyl)-amide] showed a Ki of 10.6 nM.

For `Cc1onc(-c2ccccc2)c1COc1cnc2ccccc2n1` [Example 8, 2-(5-Methyl-3-phenyl-isoxazol-4-ylmethoxy)-quinoxaline], the Ki came out at 7.4 nM.

The compound `Cc1onc(-c2ccccc2)c1CNc1cnc(C(=O)NC(C)C)cn1` [Example 9, 5-[(5-Methyl-3-phenyl-isoxazol-4-ylmethyl)-amino]-pyrazine-2-carboxylic acid isopropylamide] gave a Ki of 9.6 nM.

The compound `Cc1onc(-c2ccc(F)cn2)c1COc1cnc(C(=O)NC2CCOCC2)cn1` [Example 12, 5-[3-(5-Fluoro-pyridin-2-yl)-5-methyl-isoxazol-4-ylmethoxy]-pyrazine-2-carboxylic acid (tetrahydro-pyran-4-yl)-amide] yielded a Ki of 0.3 nM.

In the case of `O=C(NCC(F)(F)F)c1cnc(OCc2conc2-c2ccc(F)cc2)cn1` [Example 13, 5-[3-(4-Fluoro-phenyl)-isoxazol-4-ylmethoxy]-pyrazine-2-carboxylic acid (2,2,2-trifluoro-ethyl)-amide], the affinity corresponds to a Ki of 24 nM.

The compound `O=C(NCC1CC1)c1cnc(OCc2conc2-c2ccc(F)cc2)cn1` [Example 14, 5-[3-(4-Fluoro-phenyl)-isoxazol-4-ylmethoxy]-pyrazine-2-carboxylic acid cyclopropylmethyl-amide] yielded an inhibitory constant (Ki) of 21 nM. This Ki and that of the compound before are within 1.5-fold of each other.

`CC(C)NC(=O)c1cnc(OCc2conc2-c2ccc(F)cc2)cn1` [Example 15, 5-[3-(4-Fluoro-phenyl)-isoxazol-4-ylmethoxy]-pyrazine-2-carboxylic acid isopropylamide]: affinity was put at a Ki of 11 nM.

`CC(C)NC(=O)c1cnc(OCc2conc2-c2ccc(Cl)cc2)cn1` [Example 16, 5-[3-(4-Chloro-phenyl)-isoxazol-4-ylmethoxy]-pyrazine-2-carboxylic acid isopropylamide] returned a Ki of 11.6 nM.

Turning to `C[C@@H](CO)NC(=O)c1cnc(OCc2conc2-c2ccc(Cl)cc2)cn1` [Example 17, 5-[3-(4-Chloro-phenyl)-isoxazol-4-ylmethoxy]-pyrazine-2-carboxylic acid ((S)-2-hydroxy-1-methyl-ethyl)-amide], the Ki is 32 nM.

Compound `C[C@H](CO)NC(=O)c1cnc(OCc2conc2-c2ccc(Cl)cc2)cn1` [Example 18, 5-[3-(4-Chloro-phenyl)-isoxazol-4-ylmethoxy]-pyrazine-2-carboxylic acid ((R)-2-hydroxy-1-methyl-ethyl)-amide] showed a Ki of 7.4 nM.

For the compound `O=C(NC1CCOCC1)c1cnc(OCc2conc2-c2ccccn2)cn1` [Example 19, 5-(3-Pyridin-2-yl-isoxazol-4-ylmethoxy)-pyrazine-2-carboxylic acid (tetrahydro-pyran-4-yl)-amide], the Ki came out at 14.3 nM.

As to `CC(C)NC(=O)c1cnc(OCc2conc2-c2ccccn2)cn1` [Example 20, 5-(3-Pyridin-2-yl-isoxazol-4-ylmethoxy)-pyrazine-2-carboxylic acid isopropylamide], the Ki was found to be 9.6 nM. This Ki and that of the compound before are within 1.5-fold of each other.

For `O=C(NC1CC1)c1cnc(OCc2conc2-c2ccccn2)cn1` [Example 21, 5-(3-Pyridin-2-yl-isoxazol-4-ylmethoxy)-pyrazine-2-carboxylic acid cyclopropylamide], the Ki was 13.7 nM.
